The record followed here is US20250051347A1, “BIFUNCTIONAL CHIMERIC HETEROCYCLIC COMPOUND AND USE THEREOF AS ANDROGEN RECEPTOR DEGRADER” (Hinova Pharmaceuticals, Inc., priority 2021, published 2025).

The term IC50 denotes the midpoint of a concentration-inhibition curve. In general, DC50 refers to the concentration at which degradation of the target reaches its halfway point. A higher DC50 goes with degradation only at high concentration.

One data set relates to 22RV1 cells. To be noted: Homo sapiens, 22Rv1, 144 h, read-out: 22RV1 IC50 (nM), 22RV1 cells, 6 days culture, CCK-8, OD 450 nm.
Data set [1] concerns the target T1, androgen receptor (AR) splicing variant AR-v7 (Homo sapiens, UniProt P10275).
T1 construct: The degradation activity of compounds on AR-v7 in 22RV1 cells; host or cells: 22RV1 cells
T1 sequence (P10275 1-644 isoform P10275-3): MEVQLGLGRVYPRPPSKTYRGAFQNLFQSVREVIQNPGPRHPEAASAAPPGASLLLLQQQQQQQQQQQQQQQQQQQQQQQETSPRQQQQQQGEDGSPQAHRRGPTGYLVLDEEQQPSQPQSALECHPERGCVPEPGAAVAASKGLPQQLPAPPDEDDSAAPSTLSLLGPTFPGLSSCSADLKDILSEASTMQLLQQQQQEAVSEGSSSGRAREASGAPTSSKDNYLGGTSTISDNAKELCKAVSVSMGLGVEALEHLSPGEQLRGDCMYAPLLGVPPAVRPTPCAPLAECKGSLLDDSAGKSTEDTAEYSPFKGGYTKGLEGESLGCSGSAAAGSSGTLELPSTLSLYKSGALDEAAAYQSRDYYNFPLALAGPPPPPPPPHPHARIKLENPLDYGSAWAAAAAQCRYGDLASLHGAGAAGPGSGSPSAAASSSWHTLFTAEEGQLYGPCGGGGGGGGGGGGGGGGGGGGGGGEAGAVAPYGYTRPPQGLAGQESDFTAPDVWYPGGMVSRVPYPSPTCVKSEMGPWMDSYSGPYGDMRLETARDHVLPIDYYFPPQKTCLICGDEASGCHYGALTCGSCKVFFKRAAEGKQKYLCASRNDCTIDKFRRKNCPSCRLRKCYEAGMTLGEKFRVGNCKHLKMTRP
In words: Degradation activity on androgen receptor splicing variant AR-v7 in 22RV1 cells (ELISA). Type of data set: cell-based. The settings on record: AR-v7 degradation in 22RV1 cells, 48 h. For orientation: In an ELISA, binding on a coated surface is turned into a signal by an enzyme label.

Data set [2] in a line: Pharmacokinetics in mice (plasma exposure after oral administration). Type of data set: in vivo. The settings on record: ICR mice, oral (i.g.) 3 mg/kg; for AUC(0-inf): mouse, read-out: After oral administration of 3 mg/kg, mouse plasma exposure AUCinf. How it is done: • LC-20AD high performance liquid chromatography (SHIMADZU, Japan) • API4000 triple quadrupole mass spectrometer (Applied Biosystem, USA) • Phenix Winnolin Pharmacokinetic software (Version 6.3, Certara, USA) • High speed freezing centrifuge (Thermo Fisher Scientific) • Analytical balance (Sartorius, SECURA225D-ICN) • ICR mice (Chengdu Dossy Experimental Animals CO., LTD.)
A suitable amount of drug was accurately weighed, and then the medium (5% DMSO, 15% HS-15, 80% DSW) was added to prepare the solution at a concentration of 0.1 mg/ml (i.v.) and 0.3 mg/ml (i.g.).
18 healthy adult ICR mice were divided into two groups (9 mice for i.v. group; 9 mice for i.g. group), and administered by tail vein or by gavage after fasting overnight (free drinking water); using the satellite blood collection method, 3 animals were collected at each time point, and then 0.1 ml of blood obtained at different time points was anticoagulated with EDTA-K2, centrifuged at 4° C. for 5 min to separate the plasma, and stored at −80° C. for detection. The sampling time points after i.v. administration were 5 min, 15 min, 0.5 h, 1 h, 2 h, 4 h, 8 h, 12 h, and 24 h; while the sampling time points for i.g. group were before administration (0 h) as well as 0.5 h, 1 h, 2 h, 4 h, 6 h, 8 h, 12 h, and 24 h after administration. Then, the drug concentration in plasma was determined by LC/MS/MS.

Turning to `CC(C)(c1ccc(OCc2ccnc(-c3nnco3)n2)cc1)c1ccc(O[C@H]2C[C@@H](Nc3ccc4c(c3)C(=O)N(C3CCC(=O)NC3=O)C4=O)C2)cc1` (stereo partly shown) [Example 464, 5-(((1s,3s)-3-(4-(2-(4-((2-(1,3,4-oxadiazol-2-yl)pyrimidin-4-yl)methoxy)phenyl)propan-2-yl)phenoxy)cyclobutyl)amino)-2-(2,6-dioxopiperidin-3-yl)isoindolin-1,3-dione], the IC50 with 22RV1 cells was determined as 4 nM. The same compound came in with a 50% degradation concentration (DC50) in data set [1] (class symbols) of less than 10 nM. The AUC(0-inf) in data set [2] fell in the range of 100 to 1000 ng·h/mL.
Consider `CCC(CC)(c1ccc(Oc2cnc(-c3noc(C)n3)nc2)cc1)c1ccc(O[C@H]2C[C@@H](Nc3ccc4c(c3)C(=O)N(C3CCC(=O)NC3=O)C4=O)C2)cc1` (stereo partly shown) [Example 553], for which the half-inhibitory concentration (IC50) with 22RV1 cells is 15 nM. For the same compound, in data set [1] (class symbols), the DC50 is less than 10 nM. Besides, in data set [2], the AUC(0-inf) was in the range of 5000 to 30000 ng·h/mL.
As to `CC(C)(c1ccc(O[C@H]2C[C@H](Nc3ccc4c(c3)C(=O)N(C3CCC(=O)NC3=O)C4=O)C2)cc1)c1ccc(N2CCc3nc(N4CC5(COC5)C4)ncc3C2)cc1` (stereo partly shown) [Example 195], the IC50 in the data set with 22RV1 cells turned out to be 15 nM. This compound also displayed a 50% degradation concentration (DC50) in data set [1] (class symbols) of less than 10 nM. The AUC(0-inf) in data set [2] lay within 1000 to 5000 ng·h/mL.
The like results for `C=CC(c1ccc(Oc2cnc(-c3noc(C)n3)nc2)cc1)c1ccc(O[C@H]2C[C@H](Nc3ccc4c(c3)C(=O)N(C3CCC(=O)NC3=O)C4=O)C2)cc1` (stereo partly shown) [Example 210] were, in that order, 7 nM, less than 10 nM and 5000 to 30000 ng·h/mL.
As to `O=C1CCC(N2C(=O)c3ccc(N[C@H]4C[C@H](Oc5ccc(C6(c7ccc(OCc8ccnc(N9CC%10(COC%10)C9)n8)cc7)CCCC6)cc5)C4)cc3C2=O)C(=O)N1` (stereo partly shown) [Example 360, 5-(((1r,3r)-3-(4-(1-(4-((2-(2-oxa-6-azaspiro[3.3]heptane-6-yl)pyrimidin-4-yl)methoxy)phenyl)cyclopentyl)phenoxy)cyclobutyl)amino)-2-(2,6-dioxopiperidin-3-yl)isoindolin-1,3-dione], the IC50 in the data set with 22RV1 cells came out at 4 nM. Also, in data set [1] (class symbols), the half-maximal degradation concentration (DC50) is less than 10 nM. Further, the AUC(0-inf) in data set [2] fell in the range of 1000 to 5000 ng·h/mL.
The matching figures for `CC(C)(c1ccc(Oc2cc(F)cnc2-n2ccnn2)cc1)c1ccc(O[C@H]2C[C@H](Nc3ccc4c(c3)C(=O)N(C3CCC(=O)NC3=O)C4=O)C2)cc1` (stereo partly shown) [Example 516]: 10 nM, less than 10 nM and 1000 to 5000 ng·h/mL.
`CC(O)c1ncc(Oc2ccc(C(C)(C)c3ccc(O[C@H]4C[C@H](Nc5ccc6c(c5)C(=O)N(C5CCC(=O)NC5=O)C6=O)C4)cc3)cc2)cn1` (stereo partly shown) [Example 118]: the 50% inhibitory concentration (IC50) with 22RV1 cells was 3 nM. For the same compound, the “After oral administration of 3 mg/kg, mouse plasma exposure AUCinf (μg*h/mL)” value in data set [2] was “A (30-5 μg*h/mL)”.
For the compound `CC(C)(c1ccc(OCc2ccnc(N3CC4(COC4)C3)n2)cc1)c1ccc(OC2CN(Cc3ccc4c(c3)C(=O)N(C3CCC(=O)NC3=O)C4=O)C2)cc1` (stereo not shown) [Example 148], the DC50 in data set [1] (class symbols) is 101 to 1000 nM. Besides, in data set [2], the AUC(0-inf) lay within 1000 to 5000 ng·h/mL.
`CC(C)(c1ccc(OCc2cccc(-n3ccnn3)n2)cc1)c1ccc(O[C@H]2C[C@H](Nc3ccc4c(c3)C(=O)N(C3CCC(=O)NC3=O)C4=O)C2)cc1` (stereo partly shown) [Example 415] displayed a 50% degradation concentration (DC50) in data set [1] (class symbols) of 11 to 100 nM. Also, the AUC(0-inf) in data set [2] lay within 5000 to 30000 ng·h/mL.
The matching figures for `Cc1nc(-c2cncc(Oc3ccc(C(C)(C)c4ccc(O[C@H]5C[C@@H](Nc6ccc7c(c6)C(=O)N(C6CCC(=O)NC6=O)C7=O)C5)cc4)cc3)n2)no1` (stereo partly shown) [Example 599]: 11 to 100 nM and 5000 to 30000 ng·h/mL.
The like results for `Cc1nnc(-c2ccc(Oc3ccc(C(C)(C)c4ccc(O[C@H]5C[C@H](Nc6ccc7c(c6)C(=O)N(C6CCC(=O)NC6=O)C7=O)C5)cc4)cc3)cc2)o1` (stereo partly shown) [Example 322, 2-(2,6-dioxopiperidin-3-yl)-5-((1r,3r)-3-(4-(2-(4-(4-(5-methyl-1,3,4-oxadiazol-2-yl)phenoxy)phenyl)propan-2-yl)phenoxy)cyclobutyl)aminoisoindolin-1,3-dione] were, in that order, less than 10 nM and 5000 to 30000 ng·h/mL.
The matching figures for `O=C1CCC(N2C(=O)c3ccc(N[C@H]4C[C@H](Oc5ccc(Cc6ccc(Oc7cnc(-n8ccnn8)nc7)cc6)cc5)C4)cc3C2=O)C(=O)N1` (stereo partly shown) [Example 521]: 11 to 100 nM and 5000 to 30000 ng·h/mL.
Take `CC(C)(c1ccc(O)cc1)c1ccc(OCCCCCCCCOCCCCNc2ccc3c(c2)C(=O)N(C2CCC(=O)NC2=O)C3=O)cc1` (stereo not shown) [Example 438, 2-(2,6-dioxopiperidin-3-yl)-5-((4-((8-(4-(2-(4-hydroxylphenyl)propan-2-yl)phenoxy)octyl)oxy)butyl)amino)isoindolin-1,3-dione]: the DC50 in data set [1] (numeric values) is greater than 2000 nM. Moreover, the AUC(0-inf) in data set [2] fell in the range of 5000 to 30000 ng·h/mL.
With `CC(C)(c1ccc(OCc2ccnc(-n3cc(F)cn3)n2)cc1)c1ccc(O[C@H]2C[C@@H](Nc3ccc4c(c3)C(=O)N(C3CCC(=O)NC3=O)C4=O)C2)cc1` (stereo partly shown) [Example 460], the 50% degradation concentration (DC50) in data set [1] (class symbols) lay within 11 to 100 nM. For the same compound, the AUC(0-inf) in data set [2] was 100 to 1000 ng·h/mL.
`CC(C)(c1ccc(OCc2ccnc(N3CC4(COC4)C3)n2)cc1)c1ccc(O[C@H]2C[C@@H](Nc3cc4c(cc3F)C(=O)N(C3CCC(=O)NC3=O)C4=O)C2)cc1` (stereo partly shown) [Example 90, 5-(((1s,3s)-3-(4-(2-(4-((2-(2-oxa-6-azaspiro[3.3]heptane-6-yl)pyrimidin-4-yl)methoxy)phenyl)propan-2-yl)phenoxy)cyclobutyl)amino)-2-(2,6-dioxopiperidin-3-yl)-6-fluoroisoindolin-1,3-dione] returned a DC50 in data set [1] (class symbols) of 11 to 100 nM. In addition, in data set [2], the AUC(0-inf) was 1000 to 5000 ng·h/mL.
The compound `CC(=O)c1nccc(COc2ccc(C(C)(C)c3ccc(OC4CN(c5ccc6c(c5)C(=O)N(C5CCC(=O)NC5=O)C6=O)C4)cc3)cc2)n1` (stereo not shown) [Example 558] gave a DC50 in data set [1] (numeric values) greater than 10000 nM. For the same compound, the AUC(0-inf) in data set [2] lay within 5000 to 30000 ng·h/mL.
In turn, `Cc1nnc(-c2cnc(Oc3ccc(C(C)(C)c4ccc(O[C@H]5C[C@H](Nc6ccc7c(c6)C(=O)N(C6CCC(=O)NC6=O)C7=O)C5)cc4)cc3)nc2)o1` (stereo partly shown) [Example 475, 2-(2,6-dioxopiperidin-3-yl)-5-(((1r,3r)-3-(4-(2-(4-((5-(5-methyl-1,3,4oxadiazol-2-yl)pyrimidin-2-yl)oxy)phenyl)propan-2-yl)phenoxy)cyclobutyl)amino)isoindolin-1,3-dione] came in with a DC50 in data set [1] (class symbols) of 11 to 100 nM. In data set [2], the AUC(0-inf) was 5000 to 30000 ng·h/mL.
In the case of `Cc1nsc(Oc2ccc(C(C)(C)c3ccc(O[C@H]4C[C@H](Nc5ccc6c(c5)C(=O)N(C5CCC(=O)NC5=O)C6=O)C4)cc3)cc2)n1` (stereo partly shown) [Example 591, 2-(2,6-dioxopiperidin-3-yl)-5-((1r,3r)-3-(4-(2-(4-((3-methyl-1,2,4-thiadiazol-5-yl)oxy)phenyl)propan-2-yl)phenoxy)cyclobutyl)aminoisoindolin-1,3-dione], the DC50 in data set [1] (class symbols) is 11 to 100 nM. For the same compound, the AUC(0-inf) in data set [2] fell in the range of 5000 to 30000 ng·h/mL.
The like results for `CC(C)(c1ccc(OCc2ccnc(N3CC4(COC4)C3)n2)cc1)c1ccc(C(=O)Nc2ccc3c(c2)C(=O)N(C2CCC(=O)NC2=O)C3=O)cc1` (stereo not shown) [Example 504, 4-(2-(4-((2-(2-oxa-6-azaspiro[3.3]heptan-6-yl)pyrimidin-4-yl)methoxy)phenyl)propan-2-yl)-N-(2-(2,6-dioxopiperidin-3-yl)-1,3-dioxoisoindolin-5-yl)benzamide] were, in that order, 101 to 1000 nM and 100 to 1000 ng·h/mL.
The like results for `Cc1nnc(-c2ccnc(Oc3ccc(C(C)(C)c4ccc(O[C@H]5C[C@H](Nc6ccc7c(c6)C(=O)N(C6CCC(=O)NC6=O)C7=O)C5)cc4)cc3)n2)o1` (stereo partly shown) [Example 171] were, in that order, 11 to 100 nM and 5000 to 30000 ng·h/mL.
